The subject of data set [1] is CFA-induced arthritis. The data set is described as follows: Adjuvant-induced arthritis model in rat: Difference of Weight Bearing test (DWB). Format: in vivo. The settings on record: SD rat, PO 3 days post CFA, compared to dexamethasone.
Data set [2] is described as follows: Metabolic stability in human liver microsomes (in vitro t1/2). It is filed as in vitro ADME. The settings on record: human liver microsomes 0.5 mg/mL, 2 μM compound; for Human microsome % 60 min: % remaining at 60 min. In a few lines: (§1)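 Liver microsomes (0.5 mg/mL final) were incubated with 2 μM test compound in the presence of NADPH, with aliquots taken at 0, 15, 30, 45 and 60 min. Parent remaining was quantified by LC-MS/MS. k was taken from the slope of ln(% remaining) versus time, and t1/2 = −0.693/k.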
On the technique in general: Microsomes from liver hold many membrane-bound enzymes, among them those of drug oxidation.

The target in a further data set is MCT1 (Homo sapiens (Human), UniProt P53985). The data set is described as follows: Assay 4: MCT1-mediated lactate transport in BT20 breast cancer cells. It is filed as cell-based. As for the experimental part: (§2) Preparing BCECF-Loaded Cells
(§3) 10 µL of a 30 mM DMSO stock of BCECF-AM ester (Life Technologies) is added and the cells are incubated at 37° C. for 5 min. The cells are pelleted (300 g, 5 min), washed once with 1 mL Tyrode's Solution, pH 7.4, re-pelleted (300 g, 5 min), and resuspended in 1 mL Tyrode's Solution, pH 7.4.
Assay 4: MCT1-Mediated Lactate Transport in BT20 Breast Cancer Cells.
Preparation of BCECF loaded cells are as described for Assay 1. Lactate transport assay is as described for Assay 1, except 10 mM L-lactate (rather than 50 mM) is added.

Data set [3] can be described thus: Metabolic stability in mouse liver microsomes (in vitro t1/2). It is filed as in vitro ADME. The conditions noted are these: mouse liver microsomes 0.5 mg/mL, 2 μM compound; for Mouse microsome % 60 min: % remaining at 60 min; for Mouse microsome t1/2, min: in vitro t1/2. In a few lines:
as §1

The test system of data set [4] is CFA-induced arthritis. The data set is described as follows: Adjuvant-induced arthritis model in rat: Mechanical Allodynia test (MA). Format: in vivo. The conditions noted are these: SD rat, PO 3 days post CFA, compared to dexamethasone.
Data set [5] is described as follows: Pharmacokinetic assay in mouse (IV 3 mg/kg, PO 10 mg/kg). The conditions noted are these: male, CD1, mouse, plasma, read-out: Mouse F (%). Format: in vivo. From the text:
(§4) Pharmacokinetic Assays in Mouse and Rat
(§5) The following are assays that may be used to evaluate the pharmacokinetic properties of Formula (I) in mouse or rat. The assays follow a common procedure recited below.
(§6) 1. […] For PO (oral gavage), DMSO/PEG400 (10:90). Formulations freshly prepared on the day of dosing or prior to dosing. Storage at room temperature.
(§7) 2. Test Species: For Mouse: Male CD1 strain, approximately 6-8 weeks in age, approximately 20-30 g. For Rat: Male Sprague-Dawley strain, approximately 6-8 weeks in age, approximately 200-300 g.
(§8) 3. Dose Level: For IV, 3 mg/kg. For PO, 10 mg/kg.
(§9) 4. Number of animals: 3 per assay.
(§10) 5. PK time points: For IV (plasma): 5 min, 15 min, 1, 2, 4, 6, 8, 24 h post dose. For PO (plasma): 15 min, 30 min, 1, 2, 4, 6, 8, 24 h post dose.
(§11) 6. Blood Sample Collection and Processing. Blood was collected (˜0.2 mL per time point) from jugular vein. Blood of each sample was transferred into plastic micro centrifuge tubes containing anticoagulant of EDTA-K2. Blood samples were centrifuged at 2,000 g for 5 minutes at 4° C. to obtain plasma.
(§12) 7. Samples Analysis: Plasma samples were analyzed using LC/MS/MS method, and pharmacokinetic parameters (half-life: t1/2; oral bioavailability: F; volume of distribution: Vss).

Data set [6] can be described thus: Pharmacokinetic assay in rat (IV 3 mg/kg, PO 10 mg/kg). It is filed as in vivo. The conditions noted are these: male, Sprague-Dawley, plasma, read-out: Rat F (%).
Description: as §4, §5, §6, §7, §8, §9, §10, §11, §12

A short description of data set [7]: Metabolic stability in rat liver microsomes (in vitro t1/2). Format: in vitro ADME. The conditions noted are these: rat liver microsomes 0.5 mg/mL, 2 μM compound; for Rat microsome % 60 min: % remaining at 60 min. The method, boiled down:
as §1

The target of another data set is MCT4 (Homo sapiens (Human), UniProt O15427). As to the kind of experiment: Assay 3: MCT4-mediated lactate transport in MDA-MB-231 breast cancer cells. Format: cell-based. The conditions noted are these: MDA-MB-231 cells. How it is done: as §2, §3
MCT4 activity may be assessed by monitoring the intracellular pH change that accompanies lactate/proton symport, using the pH-sensitive fluorescent dye 2′,7′-bis-(carboxyethyl)-5(6)-carboxyfluorescein (BCECF), in a manner similar to that previously reported for MCT1 and MCT4. The following is an exemplary procedure for assaying MCT4 activity of the compounds of Formula (I).

Sequence of MCT1 (P53985 whole entry): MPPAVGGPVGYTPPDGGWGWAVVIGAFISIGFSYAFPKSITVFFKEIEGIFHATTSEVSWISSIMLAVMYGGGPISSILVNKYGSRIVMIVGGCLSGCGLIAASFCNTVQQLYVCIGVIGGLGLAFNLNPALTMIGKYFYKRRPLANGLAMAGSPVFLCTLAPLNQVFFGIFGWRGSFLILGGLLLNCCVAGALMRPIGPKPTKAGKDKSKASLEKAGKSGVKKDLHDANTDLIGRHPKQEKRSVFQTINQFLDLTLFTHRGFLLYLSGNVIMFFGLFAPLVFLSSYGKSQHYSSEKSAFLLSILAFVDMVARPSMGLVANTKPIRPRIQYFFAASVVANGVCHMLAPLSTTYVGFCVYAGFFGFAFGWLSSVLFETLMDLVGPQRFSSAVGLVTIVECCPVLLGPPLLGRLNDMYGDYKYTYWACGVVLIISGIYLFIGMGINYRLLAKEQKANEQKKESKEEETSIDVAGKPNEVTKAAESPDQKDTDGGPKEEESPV
Sequence of MCT1 (P35613 140-385 partner): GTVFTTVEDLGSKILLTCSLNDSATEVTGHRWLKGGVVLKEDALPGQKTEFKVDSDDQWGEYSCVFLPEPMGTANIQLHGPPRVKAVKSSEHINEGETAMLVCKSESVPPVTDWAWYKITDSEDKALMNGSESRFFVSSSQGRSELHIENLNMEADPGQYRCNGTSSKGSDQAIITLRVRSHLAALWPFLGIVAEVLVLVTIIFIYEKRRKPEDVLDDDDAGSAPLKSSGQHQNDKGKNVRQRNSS
Sequence of MCT4 (O15427 whole entry, looked up): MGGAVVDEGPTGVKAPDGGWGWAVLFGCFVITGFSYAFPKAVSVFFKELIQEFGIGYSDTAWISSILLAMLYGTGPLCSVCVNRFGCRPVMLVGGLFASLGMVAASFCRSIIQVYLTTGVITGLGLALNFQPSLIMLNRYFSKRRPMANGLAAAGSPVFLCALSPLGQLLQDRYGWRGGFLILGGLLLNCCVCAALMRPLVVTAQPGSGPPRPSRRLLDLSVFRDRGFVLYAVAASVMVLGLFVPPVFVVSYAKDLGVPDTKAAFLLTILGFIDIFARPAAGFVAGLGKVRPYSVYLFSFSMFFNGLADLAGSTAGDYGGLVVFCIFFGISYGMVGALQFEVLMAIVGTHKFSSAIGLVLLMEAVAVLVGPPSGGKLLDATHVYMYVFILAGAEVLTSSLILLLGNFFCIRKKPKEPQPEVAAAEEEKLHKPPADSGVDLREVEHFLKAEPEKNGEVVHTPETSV
Sequence of MCT4 (P35613 whole entry partner, looked up): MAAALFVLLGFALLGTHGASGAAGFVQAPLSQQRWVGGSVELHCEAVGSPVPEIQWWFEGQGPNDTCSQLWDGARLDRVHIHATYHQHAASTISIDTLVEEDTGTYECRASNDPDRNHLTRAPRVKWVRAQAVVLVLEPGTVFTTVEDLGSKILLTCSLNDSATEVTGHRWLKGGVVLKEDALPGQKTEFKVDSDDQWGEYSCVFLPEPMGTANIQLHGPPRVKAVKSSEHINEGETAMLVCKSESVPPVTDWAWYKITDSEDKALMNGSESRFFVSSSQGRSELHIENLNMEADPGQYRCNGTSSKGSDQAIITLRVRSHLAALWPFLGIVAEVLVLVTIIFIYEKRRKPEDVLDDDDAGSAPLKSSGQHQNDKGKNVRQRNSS

What is called IC50 is the midpoint of a concentration-inhibition curve. A low value points to greater potency in that assay. Consider `COc1cccc(-c2cc(COC(C)(C)C(=O)O)nn2Cc2ccccc2Cl)c1` [Example 14, 2-([1-[(2-Chlorophenyl)methyl]-5-(3-methoxyphenyl)1H-pyrazol-3-yl]methoxy)-2-methylpropanoic acid], for which the “Difference in Weight Bearing, Minimal Efficacious Dose” value (shortened to “Difference in Weight Bearing”) in the data set on CFA-induced arthritis [1] was determined as 30 mg/kg. In data set [2], the “Human microsome % 60 min” value came to 82%. Besides, the half-inhibitory concentration (IC50) at MCT1 (lactate transport (Table 26)) and against MCT1 (lactate transport (Table 27)) was more than 100000 nM throughout. Further, in data set [3], the “Mouse microsome % 60 min” value is on record as 95%. The “Mechanical Allodynia (Von Frey), Minimal Efficacious Dose” value (“Mechanical Allodynia (Von Frey)” for short) with CFA-induced arthritis [4] turned out to be 30 mg/kg. The bioavailability was determined as 100% in data set [5] and 64% in data set [6].

In the case of `CC(C)(OCc1cc(-c2cccc(OC3CC3)c2)n(-c2ccccc2Cl)n1)C(=O)O` [Example 110, 2-([1-(2-Chlorophenyl)-5-(3-cyclo-propoxyphenyl)-1H-pyrazol-3-yl]methoxy)-2-methylpropanoic acid], in the data set on CFA-induced arthritis [1], the “Difference in Weight Bearing” value is reported as 10 mg/kg. The “Human microsome % 60 min” value in [2] came out at 99%. Also, the “Mouse microsome % 60 min” value in data set [3] came to 86%. Also, the “Rat microsome % 60 min” value in data set [7] turned out to be 94%. The “Mechanical Allodynia (Von Frey)” value with CFA-induced arthritis [4] amounted to 10 mg/kg. For the same molecule, the bioavailability in [5] amounted to 100%; in data set [6] it was 84%.

In the case of `CC(C)(OCc1cc(-c2cc(OC3CC3)cs2)n(Cc2ccccc2Cl)n1)C(=O)O` [Example 130, 2-([1-[(2-Chlorophenyl)methyl]-5-(4-cyclopropoxythien-2-yl)-1H-pyrazol-3-yl]methoxy)-2-methylpropanoic acid], the IC50 at MCT1 (lactate transport (Table 27)) came to 55 nM; on MCT4 it was 98 nM.

With `CCn1ncc2ccc(-c3cc(COC(C)(C)C(=O)O)nn3Cc3ccccc3Cl)cc21` [Example 150, 2-([1-[(2-Chlorophenyl)methyl]-5-(1-ethyl-1H-indazol-6-yl)-1H-pyrazol-3-yl]-methoxy)-2-methylpropanoic Acid], the “Difference in Weight Bearing” value with CFA-induced arthritis [1] was determined as 10 mg/kg. For the same molecule, the “Human microsome % 60 min” value in data set [2] stood at 90%. The “Mouse microsome t1/2, min” value in data set [3] was “∞”. The “Rat microsome % 60 min” value in [7] came to 98%. Besides, in the data set on CFA-induced arthritis [4], the “Mechanical Allodynia (Von Frey)” value came out at 10 mg/kg. For the same molecule, the bioavailability came to 89% in [5] and 43% in data set [6].

As to `CC(C)COc1cccc(-c2cc(COC(C)(C)C(=O)O)nn2-c2cccc3cnn(C)c23)c1` [Example 170, 2-methyl-2-([1-(1-methyl-1H-indazol-7-yl)-5-[3-(2-methylpropoxy)phenyl]-1H-pyrazol-3-yl]methoxy]propanoic acid], in the data set on CFA-induced arthritis [1], the “Difference in Weight Bearing” value was found to be 3 mg/kg. Further, the “Human microsome % 60 min” value in [2] stood at 87%. In data set [3], the “Mouse microsome % 60 min” value was 99% and the “Mouse microsome t1/2, min” value was “∞”. Also, in data set [7], the “Rat microsome % 60 min” value is 95%. For the same molecule, the “Rat microsome t1/2, min” value in data set [7] (in vitro t1/2) is on record as “∞”. For the same molecule, the “Mechanical Allodynia (Von Frey)” value in the data set with CFA-induced arthritis [4] was found to be 3 mg/kg. Moreover, in data set [5], the bioavailability was determined as 100%. Further, the bioavailability in data set [6] was determined as 18%.

`CCn1ncc2ccc(-c3cc(CO[C@](C)(CC)C(=O)O)nn3Cc3ccccc3Cl)cc21` [Example 220, (2R)-2-([1-[(2-chlorophenyl)methyl]-5-(1-ethyl-1H-indazol-6-yl)-1H-pyrazol-3-yl]methoxy)-2-methylbutanoic acid]: the “Difference in Weight Bearing” value in the data set with CFA-induced arthritis [1] came to 3 mg/kg. The “Human microsome t1/2, min” value in data set [2] (in vitro t1/2) is “∞”. In [7], the “Rat microsome % 60 min” value turned out to be 86%. In addition, in the data set with CFA-induced arthritis [4], the “Mechanical Allodynia (Von Frey)” value was 3 mg/kg. Besides, the bioavailability in data set [5] was 100%; in data set [6], 29%.

`CCn1ncc2ccc(-c3cc(COC(C)(C)C(=O)O)nn3-c3ccccc3N3CCCC3)cc21` [Example 229, 2-([5-(1-ethyl-1H-indazol-6-yl)-1-[2-(pyrrolidin-1-yl)phenyl]-1H-pyrazol-3-yl]methoxy)-2-methylpropanoic acid]: the “Difference in Weight Bearing” value in the data set on CFA-induced arthritis [1] is on record as 3 mg/kg. Further, in data set [2], the “Human microsome % 60 min” value came out at 64%. Further, in [3], the “Mouse microsome % 60 min” value is recorded as 81%. In data set [7], the “Rat microsome % 60 min” value came to 69%. Besides, the “Mechanical Allodynia (Von Frey)” value with CFA-induced arthritis [4] was found to be 3 mg/kg. Besides, the bioavailability in data set [5] and in data set [6] was 100% in each case.

As for `CC(C)(OCc1cc(-c2cccc(OC3CC3)c2)n(-c2ccccc2N2CCC2)n1)C(=O)O` [Example 232, 2-([1-[2-(Azetidin-1-yl)phenyl]-5-(3-cyclopropoxyphenyl)-1H-pyrazol-3-yl]-methoxy)-2-methylpropanoic acid], the “Difference in Weight Bearing” value with CFA-induced arthritis [1] is on record as 1 mg/kg. The “Human microsome % 60 min” value in data set [2] worked out at 65%. Moreover, the “Mouse microsome % 60 min” value in data set [3] was 59%. The “Rat microsome % 60 min” value in [7] was found to be 50%. The “Mechanical Allodynia (Von Frey)” value in the data set on CFA-induced arthritis [4] stood at 1 mg/kg. Moreover, the bioavailability turned out to be 56% in data set [5] and 52% in [6].

Take `CCCn1ncc2ccc(-c3cc(COC(C)(C)C(=O)O)nn3-c3ccccc3N3CCCC3)cc21` [Example 250, 2-Methyl-2-([5-(1-propyl-1H-indazol-6-yl)-1-[2-(pyrrolidin-1-yl)phenyl]-1H-pyrazol-3-yl]methoxy]propanoic acid]: the half-inhibitory concentration (IC50) at MCT1 (lactate transport (Table 27)) was 41000 nM; against MCT4, 1.3 nM.

For `CC[C@@](C)(OCc1cc(-c2cccc(OC3CC3)c2)n(-c2ccccc2N2CCC2)n1)C(=O)O` [Example 266], the “Difference in Weight Bearing” value with CFA-induced arthritis [1] is listed as 3 mg/kg. For the same molecule, in the data set on CFA-induced arthritis [4], the “Mechanical Allodynia (Von Frey)” value was found to be 3 mg/kg. The bioavailability in [5] and in data set [6] was 100% in each case.

For the molecule `CCCn1ncc2ccc(-c3cc(CO[C@](C)(CC)C(=O)O)nn3-c3ccccc3N3CCC3)cc21` [Example 267, (2R)-2-([1-[2-(azetidin-1-yl)phenyl]-5-(1-propyl-1H-indazol-6-yl)-1H-pyrazol-3-yl]methoxy)-2-methylbutanoic acid], the “Difference in Weight Bearing” value with CFA-induced arthritis [1] is 3 mg/kg. Besides, in the data set with CFA-induced arthritis [4], the “Mechanical Allodynia (Von Frey)” value came to 3 mg/kg. The bioavailability in data set [5] was determined as 64%; in data set [6], 54%.

As for `CCn1ncc2ccc(-c3cc(CO[C@](C)(CC)C(=O)O)nn3-c3ccccc3N3CCCC3)cc21` [Example 268, (2R)-2-([5-(1-ethyl-1H-indazol-6-yl)-1-[2-(pyrrolidin-1-yl)phenyl]-1H-pyrazol-3-yl]methoxy)-2-methylbutanoic acid], the “Difference in Weight Bearing” value in the data set on CFA-induced arthritis [1] amounted to 1 mg/kg. For the same molecule, in the data set with CFA-induced arthritis [4], the “Mechanical Allodynia (Von Frey)” value came to 1 mg/kg. Further, the bioavailability in data set [5] was 77%; in [6] it was 57%.

These data come from patent US11292767B2, “Heterocyclic inhibitors of MCT4” (Vettore, LLC, priority 2016, dated 2022).
